Data taken from paper PMC5823406, “Vehicle development, pharmacokinetics and toxicity of the anti-invasive agent 4-fluoro-3’,4’,5’-trimethoxychalcone in rodents” (PLoS ONE, 2018).
Marks after values point to notes of the source that are not given here.

System: CD-1 mice
Assay: 7-Day repeat-dose toxicity study (medicated gel)
Assay type: in vivo, mouse
Details: for Organ weight: Kidneys / Organ weight: Liver / Organ weight: Spleen: Average±SD; for Hyperactivity and increased anxiety on opening of the cages: from day 2 on
Method: Fifteen 7-week old male CD-1 mice, weighing 27 to 34 g, were obtained from Janvier, France. Animals were randomly allocated to one of four cohorts (N = 4 for the 0 mg/kg, 100 mg/kg and 300 mg/kg C16 cohorts, N = 3 for the water control group). Animals were healthy at the start of the trial. Each cohort was housed in one conventional cage with wood chip bedding and kept in a room with a well-controlled temperature (20–24°C) and humidity with 12-h light/dark cycles. Duration of acclimation was five days, during which all animals had ad libitum access to feed and tap water. Feed was obtained from Carfil, Belgium (Complete feed for rats and mice, article n° 10783915). Animals were ear-marked under isoflurane anesthesia (induction 5%, maintenance 2.5%, oxygen 1 L/min) on day -3 of the study. The study was not blinded.
On the morning of day -2 of the study, tap water access was removed from the 0 mg/kg, 100 mg/kg and 300 mg/kg C16 cohorts. These groups were granted access to two non-medicated cups of Medigel sucralose (one in a tailor-made plastic holder with magnetic fixation system to the side of the cage, one in a cardboard holder on top of the bedding material) for an acclimatization period of three days. Note: the magnetic fixation system is preferable, as animals tear and consume the cardboard holders.
Medicated gels were prepared in order to provide animals with a PO C16 dose equaling oral gavage dosing at 0, 100 and 300 mg/kg three times per day (0, 78.43 and 235.29 mg C16 per cup, respectively, assuming a consumption of 7 mL of gel per day and an average animal weight of 30 g). On the morning of day 0 of the study, treatment with two medicated gels was started and maintained up to the morning of day 7 (i.e. a 7-day treatment). Fresh cups were prepared and provided every day. Meanwhile, the water control group was continuously granted unlimited access to tap water. Throughout the study, all animals had ad libitum access to feed, except for the water control group, which was fasted on the evening of day 6, i.e. twelve hours prior to the single PO test article administration. Animal weight, feed and water/gel consumption and the presence of toxic symptoms and autonomic effects were monitored on a daily basis for all cohorts.
On the evening of day 6, blood was collected via the tail vein for the 0, 100 and 300 mg/kg C16 cohorts for determination of the whole blood C16 level. On the morning of day 7, mice of the 0, 100 and 300 mg/kg C16 cohorts were anesthetized by IP injection with 250 mg/kg of Avertin (20 mL/kg, preparation see Section E in S1 File). Blood for C16 determination and hematological and biochemical analysis was collected via cardiac exsanguination (600 μL to 1 mL). Detailed analysis protocols are described below. Afterward, animals were sacrificed by cervical dislocation.
All animals were necropsied and assessed for gross pathology. Liver, kidneys and spleen weights were recorded, and fragments of these organs were fixed in a 4% formaldehyde solution and processed for microscopic evaluation.
Cardiac puncture as described above afforded 0.6–1 mL of blood. Approximately 500 μL thereof was collected in a Greiner Bio 0.5 mL ethylenediaminetetraacetic acid (EDTA) Eppendorf tube for hematological parameter determination and kept at room temperature. The remaining volume was collected in a regular Eppendorf tube and allowed to clot completely at room temperature over 45 min. The tubes were centrifuged at 1,900 x g (3000 rpm) and 4 °C for 10 min using a swinging bucket rotor. The upper serum phase was transferred to a new tube with conical bottom. Care was taken not to disturb the intermediate buffy coat layer. The serum samples were centrifuged at 16,000 x g and 4 °C for 10 min in a fixed-angle rotor. The cleared supernatant was transferred to a new tube without disturbing the pellet, affording 200–500 μL of serum. Samples were diluted to 500 μL with normal saline, flash frozen in liquid N2 and stored at -80 °C prior to analysis. […]

[1] = 100 mg/kg cohort, 7-day PO via medicated gels, average±SD
[2] = 300 mg/kg cohort, 7-day PO via medicated gels
[3] = 300 mg/kg cohort, 7-day PO via medicated gels, average±SD

SMILES: COc1cc(C(=O)/C=C/c2ccc(F)cc2)cc(OC)c1OC [C16, 4-fluoro-3’,4’,5’-trimethoxychalcone]
- ALP [1]: 118±33 IU/L
- ALT [1]: 70±40 IU/L
- AST [1]: 345±365 IU/L
- BASO [1]: 0.2±0.2%
- CHO [1]: 96 ± 21 mg/dL
- EO [1]: 0±0%
- GLUC [1]: 218 ± 30 mg/dL
- HCT [1]: 44.5±5.2%
- HGB [1]: 12.2 ± 0.2 g/dL
- IG [1]: 0.04±0.06 10^3/μL
- LYMP [1]: 79.2±3.4%
- MCH [1]: 14.7 ± 1.5 pg
- MCV [1]: 53.4 ± 1.8 fL
- MONO [1]: 2.5±0.6%
- NEUT [1]: 16.9±4.9%
- NRBC [1]: 0.75±1.06 10^3/μL
- PLT [1]: 281±33 10^3/μL
- RBC [1]: 8.32±0.69 10^6/μL
- TP [1]: 42.0 ± 4.5 g/L
- TRIGL [1]: 110 ± 45 mg/dL
- WBC [1]: 3.05±0.08 10^3/μL
- Organ weight: Kidneys (100 mg/kg cohort): 0.45 ± 0.02 g
- Organ weight: Liver (100 mg/kg cohort): 1.67 ± 0.33 g
- Organ weight: Spleen (100 mg/kg cohort): 0.16 ± 0.06 g
- Daily gel consumption, average (100 mg/kg cohort, Day 1): 14.9 g/animal
- Feed consumption, average (100 mg/kg cohort, Day 1): 4.8 g/animal
- Animal weight (100 mg/kg cohort, Day 1, Average±SD): 30.0 ± 1.7 g
- Daily gel consumption, average (100 mg/kg cohort, Day 2): 12.3 g/animal
- Feed consumption, average (100 mg/kg cohort, Day 2): 5.4 g/animal
- Animal weight (100 mg/kg cohort, Day 2, Average±SD): 30.6 ± 1.6 g
- Daily gel consumption, average (100 mg/kg cohort, Day 3): 11.2 g/animal
- Feed consumption, average (100 mg/kg cohort, Day 3): 6.1 g/animal
- Animal weight (100 mg/kg cohort, Day 3, Average±SD): 31.2 ± 2.0 g
- Daily gel consumption, average (100 mg/kg cohort, Day 4): 15.1 g/animal
- Feed consumption, average (100 mg/kg cohort, Day 4): 6.9 g/animal
- Animal weight (100 mg/kg cohort, Day 4, Average±SD): 32.0 ± 2.1 g
- Daily gel consumption, average (100 mg/kg cohort, Day 5): 18.1 g/animal
- Feed consumption, average (100 mg/kg cohort, Day 5): 5.9 g/animal
- Animal weight (100 mg/kg cohort, Day 5, Average±SD): 32.4 ± 2.0 g
- Daily gel consumption, average (100 mg/kg cohort, Day 6): 13.1 g/animal
- Feed consumption, average (100 mg/kg cohort, Day 6): 5.6 g/animal
- Animal weight (100 mg/kg cohort, Day 6, Average±SD): 32.1 ± 2.0 g
- Daily gel consumption, average (100 mg/kg cohort, Day 7): 11.8 g/animal
- Feed consumption, average (100 mg/kg cohort, Day 7): 5.6 g/animal
- Animal weight (100 mg/kg cohort, Day 7, Average±SD): 32.7 ± 2.2 g
- Hyperactivity and increased anxiety on opening of the cages (100 mg/kg cohort): slightly noticeable
- IG [2]: 0 10^3/μL
- LYMP [2]: 60.1%
- NEUT [2]: 39.9%
- ALP [3]: 94±18 IU/L
- ALT [3]: 43±9 IU/L
- AST [3]: 221±65 IU/L
- BASO [3]: 0±0%
- CHO [3]: 73 ± 18 mg/dL
- EO [3]: 0±0%
- GLUC [3]: 206±24 ^a mg/dL
- HCT [3]: 34.0±7.78%
- HGB [3]: 10.1 ± 2.9 g/dL
- MCH [3]: 16.0 ± 0.2 pg
- MCV [3]: 54.5 ± 4.24 fL
- MONO [3]: 2.6±3.7%
- NRBC [3]: 0.35±0.49 10^3/μL
- RBC [3]: 6.32±1.92 10^6/μL
- TP [3]: 31.6 ± 21.3 g/L
- TRIGL [3]: 123 ± 55 mg/dL
- WBC [3]: 2.97±0.94 10^3/μL
- Organ weight: Liver (300 mg/kg cohort): 1.70 ± 0.19 g
- Organ weight: Spleen (300 mg/kg cohort): 0.15 ± 0.04 g
- Organ weight: Kidneys (300 mg/kg cohort, p 0.001): 0.39 ± 0.02 g
- Daily gel consumption, average (300 mg/kg cohort, Day 1): 15.2 g/animal
- Feed consumption, average (300 mg/kg cohort, Day 1): 6.0 g/animal
- Animal weight (300 mg/kg cohort, Day 1, Average±SD): 28.6 ± 0.6 g
- Daily gel consumption, average (300 mg/kg cohort, Day 2): 12.6 g/animal
- Feed consumption, average (300 mg/kg cohort, Day 2): 6.3 g/animal
- Animal weight (300 mg/kg cohort, Day 2, Average±SD): 29.8 ± 0.7 g
- Daily gel consumption, average (300 mg/kg cohort, Day 3): 14.7 g/animal
- Feed consumption, average (300 mg/kg cohort, Day 3): 8.4 g/animal
- Animal weight (300 mg/kg cohort, Day 3, Average±SD): 29.6 ± 0.8 g
- Daily gel consumption, average (300 mg/kg cohort, Day 4): 12.9 g/animal
- Feed consumption, average (300 mg/kg cohort, Day 4): 6.6 g/animal
- Animal weight (300 mg/kg cohort, Day 4, Average±SD): 30.5 ± 1.4 g
- Daily gel consumption, average (300 mg/kg cohort, Day 5): 15.4 g/animal
- Feed consumption, average (300 mg/kg cohort, Day 5): 6.1 g/animal
- Animal weight (300 mg/kg cohort, Day 5, Average±SD): 30.7 ± 1.6 g
- Daily gel consumption, average (300 mg/kg cohort, Day 6): 13.6 g/animal
- Feed consumption, average (300 mg/kg cohort, Day 6): 7.1 g/animal
- Animal weight (300 mg/kg cohort, Day 6, Average±SD): 31.1 ± 1.8 g
- Daily gel consumption, average (300 mg/kg cohort, Day 7): 12.9 g/animal
- Feed consumption, average (300 mg/kg cohort, Day 7): 6.2 g/animal
- Animal weight (300 mg/kg cohort, Day 7, Average±SD): 31.3 ± 1.2 g
- Hyperactivity and increased anxiety on opening of the cages (300 mg/kg cohort): noticeable
- Kidney weight versus 100 mg/kg and 0 mg/kg cohort (300 mg/kg cohort, p = 0.001): slight but significant decrease
- Gross lesions on detailed necropsy (medicated gel, 7 days): No gross lesions
- Histology of the kidney and spleen (medicated gel, 7 days): no abnormalities
